Measured values published in PubChem BioAssay AID248 (DTP/NCI, 2004).
Where “and” joins values, the source holds several entries; their conditions need not be identical. Equal values may be shown once. Inconclusive results and toxic doses are left out.

System: L1210 leukemia ip in BDF1 mice, survival T/C
Assay: NCI In Vivo Anticancer Drug Screen. Data for tumor model L1210 Leukemia (intraperitoneal) in B6D2F1 (BDF1) mice
Conditions: endpoint: mean survival time, higher = longer survival
Procedure, shortened: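 In this screen, tumor-bearing mice given compound are compared to those given vehicle, and their survival values are reported as a treated-to-control quotient.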

[1] = dose: 100.0 mg/kg/injection, schedule: Q04DX003 (ip), vehicle: saline with Tween-80
[2] = dose: 200.0 mg/kg/injection, schedule: Q04DX003 (ip), vehicle: saline with Tween-80
[3] = dose: 400.0 mg/kg/injection, schedule: Q04DX003 (ip), vehicle: saline with Tween-80
[4] = dose: 200.0 mg/kg/injection, schedule: Q01DX001 (ip), vehicle: saline
[5] = dose: 400.0 mg/kg/injection, schedule: Q01DX001 (ip), vehicle: saline
[6] = dose: 100.0 mg/kg/injection, schedule: Q01DX009 (ip), vehicle: Klucel (hydroxypropylcellulose) (HPC)
[7] = dose: 200.0 mg/kg/injection, schedule: Q01DX009 (ip), vehicle: Klucel (hydroxypropylcellulose) (HPC)
[8] = dose: 400.0 mg/kg/injection, schedule: Q01DX009 (ip), vehicle: Klucel (hydroxypropylcellulose) (HPC)
[9] = dose: 100.0 mg/kg/injection, schedule: Q01DX001 (ip), vehicle: saline

O=C1CC2OCC=C3C[N+]4(SS(=O)(=O)[O-])CCC56c7ccccc7N1C5C2C3CC64 (stereo not drawn)
T/C (dose: 0.15 mg/kg/injection, schedule: Q01DX009 (ip), vehicle: saline): 93 % of control
T/C (dose: 0.31 mg/kg/injection, schedule: Q01DX009 (ip), vehicle: saline): 95 % of control
T/C (dose: 0.31 mg/kg/injection, schedule: Q04DX003 (ip), vehicle: acetone): 108 % of control
T/C (dose: 0.62 mg/kg/injection, schedule: Q01DX009 (ip), vehicle: saline): 93 % of control
T/C (dose: 0.62 mg/kg/injection, schedule: Q04DX003 (ip), vehicle: acetone): 108 % of control
T/C (dose: 0.92 mg/kg/injection, schedule: Q01DX009 (ip), vehicle: saline): 92 % of control
T/C (dose: 1.25 mg/kg/injection, schedule: Q01DX001 (ip), vehicle: saline): 98 % of control
T/C (dose: 1.25 mg/kg/injection, schedule: Q04DX003 (ip), vehicle: acetone): 88 % of control
T/C (dose: 1.4 mg/kg/injection, schedule: Q01DX009 (ip), vehicle: saline): 92 % of control

CC(=O)OC(C#N)c1ccco1 (stereo not drawn)
T/C (dose: 3.0 mg/kg/injection, schedule: Q01DX009 (ip), vehicle: saline with Tween-80): 91 % of control
T/C (dose: 3.0 mg/kg/injection, schedule: Q04DX003 (ip), vehicle: saline with Tween-80): 105 % of control
T/C (dose: 6.0 mg/kg/injection, schedule: Q01DX009 (ip), vehicle: saline with Tween-80): 100 % of control
T/C (dose: 6.0 mg/kg/injection, schedule: Q04DX003 (ip), vehicle: saline with Tween-80): 101 % of control
T/C (dose: 12.0 mg/kg/injection, schedule: Q01DX009 (ip), vehicle: saline with Tween-80): 91 % of control
T/C (dose: 12.0 mg/kg/injection, schedule: Q04DX003 (ip), vehicle: saline with Tween-80): 101 % of control
T/C (dose: 12.5 mg/kg/injection, schedule: Q04DX003 (ip), vehicle: saline with Tween-80): 89 % of control

O=S(c1ccc(O)cc1)c1ccc(O)cc1
T/C [1]: 99 % of control
T/C [2]: 94 % of control
T/C [3]: 101 % of control

C/C(=N\N=C(/C)c1cccc(N)c1)c1cccc(N)c1
T/C [4]: 87 % of control
T/C [5]: 87 % of control

COc1cccc(NC(=O)c2cccc(C(=O)Nc3cccc(OC)c3)c2)c1
T/C [6]: 94 % of control
T/C [7]: 91 % of control
T/C [8]: 86 % of control

CNC(=O)c1cc(NC(=O)c2ccc(C(=O)Nc3cc(C(=O)NC)cc(C4=NCCN4)c3)cc2)cc(C2=NCCN2)c1
T/C (dose: 16.0 mg/kg/injection, schedule: Q01DX015 (ip), vehicle: methylcellulose (MC)): 90 % of control
T/C (dose: 25.0 mg/kg/injection, schedule: Q01DX009 (ip), vehicle: carboxymethylcellulose (CMC)): 96 % of control
T/C (dose: 31.0 mg/kg/injection, schedule: Q01DX015 (ip), vehicle: methylcellulose (MC)): 94 % of control
T/C (dose: 50.0 mg/kg/injection, schedule: Q01DX009 (ip), vehicle: carboxymethylcellulose (CMC)): 96 % of control
T/C (dose: 62.0 mg/kg/injection, schedule: Q01DX015 (ip), vehicle: methylcellulose (MC)): 94 % of control and 120 % of control
T/C (dose: 100.0 mg/kg/injection, schedule: Q01DX001 (ip), vehicle: carboxymethylcellulose (CMC)): 96 % of control
T/C (dose: 100.0 mg/kg/injection, schedule: Q01DX009 (ip), vehicle: carboxymethylcellulose (CMC)): 113 % of control
T/C (dose: 125.0 mg/kg/injection, schedule: Q01DX015 (ip), vehicle: methylcellulose (MC)): 94 % of control and 102 % of control
T/C (dose: 200.0 mg/kg/injection, schedule: Q01DX001 (ip), vehicle: carboxymethylcellulose (CMC)): 91 % of control
T/C (dose: 200.0 mg/kg/injection, schedule: Q01DX009 (ip), vehicle: carboxymethylcellulose (CMC)): 98 % of control
T/C (dose: 500.0 mg/kg/injection, schedule: Q01DX015 (ip), vehicle: methylcellulose (MC)): 106 % of control

CSc1cccc(/C=C\c2ccc([N+](=O)[O-])cc2)c1
T/C [6]: 101 % of control
T/C (dose: 100.0 mg/kg/injection, schedule: Q04DX003 (ip), vehicle: Klucel (hydroxypropylcellulose) (HPC)): 94 % of control
T/C [7]: 100 % of control
T/C (dose: 200.0 mg/kg/injection, schedule: Q04DX003 (ip), vehicle: Klucel (hydroxypropylcellulose) (HPC)): 94 % of control
T/C [8]: 88 % of control
T/C (dose: 400.0 mg/kg/injection, schedule: Q04DX003 (ip), vehicle: Klucel (hydroxypropylcellulose) (HPC)): 96 % of control

NCCCCC(=O)NC(CCCCNC(=O)OCc1ccccc1)C(=O)NCCCCC(=O)NC(CCCCNC(=O)OCc1ccccc1)C(=O)NCCCCC(=O)NC(CCCCNC(=O)OCc1ccccc1)C(=O)NCCCCC(=O)NC(CCCCNC(=O)OCc1ccccc1)C(=O)NCCCCC(=O)NC(CCCCNC(=O)OCc1ccccc1)C(=O)NCCCCC(=O)NC(CCCCNC(=O)OCc1ccccc1)C(=O)NCCCCC(=O)NC(CCCCNC(=O)OCc1ccccc1)C(=O)O (stereo not drawn)
T/C [9]: 92 % of control
T/C [4]: 90 % of control
T/C [5]: 95 % of control

CN(c1ccccc1)c1cc(N)nc(N)n1
T/C (dose: 6.0 mg/kg/injection, schedule: Q01DX Z (ip), vehicle: methylcellulose (MC)): 92 % of control

CCCC(C(=O)OCCNC1CCCCC1)c1ccccc1 (stereo not drawn)
T/C (dose: 75.0 mg/kg/injection, schedule: Q01DX001 (ip), vehicle: saline): 104 % of control

O=Cc1ccc(-c2ccc([N+](=O)[O-])cc2)o1
T/C (dose: 100.0 mg/kg/injection, schedule: Q01DX001 (ip), vehicle: saline with Tween-80): 92 % of control
T/C (dose: 200.0 mg/kg/injection, schedule: Q01DX001 (ip), vehicle: saline with Tween-80): 94 % of control
T/C (dose: 400.0 mg/kg/injection, schedule: Q01DX001 (ip), vehicle: saline with Tween-80): 103 % of control

O=C(Nc1ccccc1C(=O)N/N=C/c1ccc(Cl)cc1Cl)c1ccccc1Cl
T/C [6]: 90 % of control
T/C [7]: 97 % of control
T/C [8]: 86 % of control

Cc1ccc(Nc2ccc(Nc3ccc(C)cc3)c3c2C(=O)c2c(O)ccc(O)c2C3=O)cc1
T/C (dose: 200.0 mg/kg/injection, schedule: Q01DX001 (ip), vehicle: Klucel (hydroxypropylcellulose) (HPC)): 90 % of control
T/C (dose: 400.0 mg/kg/injection, schedule: Q01DX001 (ip), vehicle: Klucel (hydroxypropylcellulose) (HPC)): 97 % of control

CCOC(=O)N(C)C1CCC1NC (stereo not drawn)
T/C (dose: 100.0 mg/kg/injection, schedule: Q04DX003 (ip), vehicle: saline): 98 % of control
T/C (dose: 200.0 mg/kg/injection, schedule: Q04DX003 (ip), vehicle: saline): 112 % of control
T/C (dose: 400.0 mg/kg/injection, schedule: Q04DX003 (ip), vehicle: saline): 104 % of control

COc1ccccc1N(N=O)C(=O)CC(C)=O
T/C [9]: 101 % of control
T/C [4]: 101 % of control
T/C [5]: 101 % of control

Nc1nc(CNc2ccccc2)nc(Nc2ccccc2)n1
T/C [1]: 89 % of control
T/C [2]: 101 % of control
T/C [3]: 89 % of control

CNc1nc(Nc2ccc(C3=NCCN3)cc2)nc(Nc2ccc(C3=NCCN3)cc2)n1
T/C (dose: 1.25 mg/kg/injection, schedule: Q01DX015 (ip), vehicle: water): 96 % of control
T/C (dose: 2.5 mg/kg/injection, schedule: Q01DX015 (ip), vehicle: water): 96 % of control
T/C (dose: 5.0 mg/kg/injection, schedule: Q01DX015 (ip), vehicle: water): 105 % of control
T/C (dose: 7.5 mg/kg/injection, schedule: Q01DX015 (ip), vehicle: water): 152 % of control
T/C (dose: 10.0 mg/kg/injection, schedule: Q01DX015 (ip), vehicle: water): 102 % of control
T/C (dose: 12.5 mg/kg/injection, schedule: Q01DX001 (ip), vehicle: water): 105 % of control
T/C (dose: 13.3 mg/kg/injection, schedule: Q01DX Z (ip), vehicle: saline): 115 % of control
T/C (dose: 15.0 mg/kg/injection, schedule: Q01DX015 (ip), vehicle: water): 106 % of control
T/C (dose: 20.0 mg/kg/injection, schedule: Q01DX Z (ip), vehicle: saline): 121 % of control
T/C (dose: 25.0 mg/kg/injection, schedule: Q01DX001 (ip), vehicle: water): 103 % of control
T/C (dose: 30.0 mg/kg/injection, schedule: Q01DX015 (ip), vehicle: water): 121 % of control
T/C (dose: 50.0 mg/kg/injection, schedule: Q01DX001 (ip), vehicle: water): 100 % of control
T/C (dose: 60.0 mg/kg/injection, schedule: Q01DX Z (oral), vehicle: carboxymethylcellulose (CMC)): 105 % of control
T/C (dose: 75.0 mg/kg/injection, schedule: Q01DX001 (ip), vehicle: water): 115 % of control
T/C (dose: 120.0 mg/kg/injection, schedule: Q01DX Z (oral), vehicle: carboxymethylcellulose (CMC)): 109 % of control
T/C (dose: 240.0 mg/kg/injection, schedule: Q01DX Z (oral), vehicle: carboxymethylcellulose (CMC)): 96 % of control
T/C (dose: 480.0 mg/kg/injection, schedule: Q01DX Z (oral), vehicle: carboxymethylcellulose (CMC)): 100 % of control

O=C(O)CCC(=O)c1ccc(Br)cc1
T/C (dose: 50.0 mg/kg/injection, schedule: Q01DX009 (ip), vehicle: Klucel (hydroxypropylcellulose) (HPC)): 100 % of control
T/C [6]: 95 % of control
T/C [7]: 101 % of control
